Key:
[1] = tested on: hop (Zatecky poloskory cervenak); assay: Foliar treatment of hop seedlings (Example 1): contents of alpha acid, beta acid, hop oils; dry weight; type: in vivo; conditions: for (Reference) Dry weight / Beta acid (%) / Hop oil myrcene / Hop oil pharnesene / Alpha acid (%) / (Reference) Dry weight, ratio to no treatment / Alpha acid (ratio to no treatment) / Beta acid (ratio to no treatment) / Hop oil myrcene (ratio to no treatment) / Hop oil pharnesene (ratio to no treatment): foliar treatment 5 times; for Alpha acid (%): Zatecky poloskory cervenak; for (Reference) Dry weight, ratio to no treatment / Alpha acid (ratio to no treatment) / Beta acid (ratio to no treatment) / Hop oil myrcene (ratio to no treatment) / Hop oil pharnesene (ratio to no treatment): no treatment = 100
Text: Seedlings of Zatecky poloskory cervenak cultivated by conventional method in Slovakia in 2006 were subjected to foliar treatment at timing shown in Table 1 with an aqueous 5-aminolevulinic acid (ALA) hydrochloride solution shown in Table 2.

[2] = tested on: hop (high alpha acid type Marynka species); assay: Foliar treatment of hop seedlings (Example 2): alpha acid content; yield; type: in vivo; conditions: for Alpha acid (%): Marynka; for (Reference) Yield (ratio to no treatment %) / Alpha acid (ratio to no treatment): no treatment = 100
Text: Seedlings of a high alpha acid type Marynka species cultivated by conventional method in Poland in 2006 were subjected to foliar treatment at timing shown in Table 4 with an aqueous ALA hydrochloride solution the same as in Example 1.

[3] = Treatment 1 (basal fertilizer 30% up): 0.05%, 1000 L/ha, 6 times
[4] = Treatment 1: 0.05%, 1000 L/ha, 6 times
[5] = Treatment 2: 0.05%, 1000, 2000, 3000 L/ha at 1st, 3rd, 5th time

NCC(=O)CCC(=O)O [ALA, 5-aminolevulinic acid]
contents of an alpha acid, a beta acid, and hop oils ([1]; ALA treatment versus no treatment, Table 3, in words): remarkably increased
(Reference) Dry weight ([1]; 0.02%, 2500 L/ha): 1.76 t/ha
Beta acid (%) ([1]; 0.02%, 2500 L/ha): 4.62%
Hop oil myrcene ([1]; 0.02%, 2500 L/ha): 51.6
Hop oil pharnesene ([1]; 0.02%, 2500 L/ha): 19.9
Alpha acid (%) ([1]; 0.02%, 2500 L/ha): 3.26%
(Reference) Dry weight, ratio to no treatment ([1]; 0.02%, 2500 L/ha): 125%
Alpha acid (ratio to no treatment) ([1]; 0.02%, 2500 L/ha): 127
Beta acid (ratio to no treatment) ([1]; 0.02%, 2500 L/ha): 105
Hop oil myrcene (ratio to no treatment) ([1]; 0.02%, 2500 L/ha): 149
Hop oil pharnesene (ratio to no treatment) ([1]; 0.02%, 2500 L/ha): 121
(Reference) Dry weight ([1]; 0.1%, 500 L/ha): 1.44 t/ha
Beta acid (%) ([1]; 0.1%, 500 L/ha): 4.95%
Hop oil myrcene ([1]; 0.1%, 500 L/ha): 57.0
Hop oil pharnesene ([1]; 0.1%, 500 L/ha): 17.6
Alpha acid (%) ([1]; 0.1%, 500 L/ha): 3.11%
(Reference) Dry weight, ratio to no treatment ([1]; 0.1%, 500 L/ha): 103%
Alpha acid (ratio to no treatment) ([1]; 0.1%, 500 L/ha): 121
Beta acid (ratio to no treatment) ([1]; 0.1%, 500 L/ha): 113
Hop oil myrcene (ratio to no treatment) ([1]; 0.1%, 500 L/ha): 164
Hop oil pharnesene (ratio to no treatment) ([1]; 0.1%, 500 L/ha): 107
content of an alpha acid ([2]; ALA treatment versus no treatment, Table 5, in words): remarkably increased
(Reference) Yield (kg/ha) [2, 3]: 1610 kg/ha
Alpha acid (%) [2, 3]: 6.98%
(Reference) Yield (ratio to no treatment %) [2, 3]: (104) %
Alpha acid (ratio to no treatment) [2, 3]: (104)
(Reference) Yield (kg/ha) [2, 4]: 1609 kg/ha
Alpha acid (%) [2, 4]: 6.82%
(Reference) Yield (ratio to no treatment %) [2, 4]: (104) %
Alpha acid (ratio to no treatment) [2, 4]: (102)
(Reference) Yield (kg/ha) [2, 5]: 1610 kg/ha
Alpha acid (%) [2, 5]: 6.95%
(Reference) Yield (ratio to no treatment %) [2, 5]: (104) %
Alpha acid (ratio to no treatment) [2, 5]: (104)

From patent publication US20100105948A1, “HOP ALPHA ACID OR HOP OIL CONTENT ENHANCER” (COSMO OIL CO., LTD., priority 2007, published 2010)
